In patent US12102089B2, “Method for inactivating mold spores” (DSM IP ASSETS B.V., priority 2017, dated 2024):

Test system: Talaromyces emersonii (CBS 236.58)
Assay: Heat treatment of Talaromyces emersonii spores in ice tea with natamycin, visual growth
Format: cell-based
Parameters: key to growth or no growth: growth (+); no growth (−)
Description: Commercially available ice tea (Lipton, peach flavor, non-carbonated, 1.5 L) was adjusted to high water hardness by adding 1 ml of a solution of 39 g CaCl2 and 27 g MgCl2 added to 934 g water. ⅓ of this ice tea preparation (the pH of which was 3.15) was left as-such, ⅓ of the preparation was enriched with 5 ppm natamycin and ⅓ of the preparation was enriched with 10 ppm natamycin. Samples of 5 ml were made from each preparation in 15 ml sterile plastic tubes. Of each preparation 8 samples were pre-heated to the desired pasteurization temperature using a water bath. Temperatures used were RT, 60, 65, 70, 75, 80, 85 and 90° C. When the desired temperature was reached, 100 μl of a 2500 spores/ml spore suspension of Aspergillus niger ATCC 9029AA was added to each tube. Subsequently, the samples were kept for 30 seconds at the temperature in question in the water bath. Next, the samples were cooled on ice to a temperature of 25° C. Samples were incubated at 25° C. and visually examined for growth (formation of mold flakes or turbidity) for two months. Additionally, samples were enumerated according to ISO protocol 21527-1.2008 on day 0 (before heat treatment) and day 1 (after heat treatment) to count immediate loss of viability. […] For the results, see Table 1. […] Example 1 was repeated however with Talaromyces emersonii (CBS 236.58, 1000 spores/ml) instead of Aspergillus niger.

C[C@@H]1C/C=C/C=C/C=C/C=C/[C@H](O[C@@H]2O[C@H](C)[C@@H](O)[C@H](N)[C@@H]2O)C[C@@H]2O[C@](O)(C[C@@H](O)C[C@H]3O[C@@H]3/C=C/C(=O)O1)C[C@H](O)[C@H]2C(=O)O [natamycin]
growth or no growth (60°C, 5 ppm, day 1): −
growth or no growth (60°C, 5 ppm, day 2): −
growth or no growth (60°C, 5 ppm, day 3): −
growth or no growth (60°C, 5 ppm, day 4): −
growth or no growth (60°C, 5 ppm, day 5): −
growth or no growth (60°C, 5 ppm, day 6): −
growth or no growth (60°C, 5 ppm, day 7): −
growth or no growth (60°C, 5 ppm, day 8): −
growth or no growth (60°C, 5 ppm, day 9): −
growth or no growth (60°C, 5 ppm, day 10): −
growth or no growth (60°C, 5 ppm, day 11): −
growth or no growth (60°C, 5 ppm, day 12): −
growth or no growth (60°C, 5 ppm, day 13): −
growth or no growth (60°C, 5 ppm, day 14): −
growth or no growth (60°C, 10 ppm, day 1): −
growth or no growth (60°C, 10 ppm, day 2): −
growth or no growth (60°C, 10 ppm, day 3): −
growth or no growth (60°C, 10 ppm, day 4): −
growth or no growth (60°C, 10 ppm, day 5): −
growth or no growth (60°C, 10 ppm, day 6): −
growth or no growth (60°C, 10 ppm, day 7): −
growth or no growth (60°C, 10 ppm, day 8): −
growth or no growth (60°C, 10 ppm, day 9): −
growth or no growth (60°C, 10 ppm, day 10): −
growth or no growth (60°C, 10 ppm, day 11): −
growth or no growth (60°C, 10 ppm, day 12): −
growth or no growth (60°C, 10 ppm, day 13): −
growth or no growth (60°C, 10 ppm, day 14): −
growth or no growth (65°C, 5 ppm, day 1): −
growth or no growth (65°C, 5 ppm, day 2): −
growth or no growth (65°C, 5 ppm, day 3): −
growth or no growth (65°C, 5 ppm, day 4): +
growth or no growth (65°C, 5 ppm, day 5): +
growth or no growth (65°C, 5 ppm, day 6): +
growth or no growth (65°C, 5 ppm, day 7): +
growth or no growth (65°C, 5 ppm, day 8): +
growth or no growth (65°C, 5 ppm, day 9): +
growth or no growth (65°C, 5 ppm, day 10): +
growth or no growth (65°C, 5 ppm, day 11): +
growth or no growth (65°C, 5 ppm, day 12): +
growth or no growth (65°C, 5 ppm, day 13): +
growth or no growth (65°C, 5 ppm, day 14): +
growth or no growth (65°C, 10 ppm, day 1): −
growth or no growth (65°C, 10 ppm, day 2): −
growth or no growth (65°C, 10 ppm, day 3): −
growth or no growth (65°C, 10 ppm, day 4): −
growth or no growth (65°C, 10 ppm, day 5): −
growth or no growth (65°C, 10 ppm, day 6): −
growth or no growth (65°C, 10 ppm, day 7): −
growth or no growth (65°C, 10 ppm, day 8): −
growth or no growth (65°C, 10 ppm, day 9): −
growth or no growth (65°C, 10 ppm, day 10): −
growth or no growth (65°C, 10 ppm, day 11): −
growth or no growth (65°C, 10 ppm, day 12): −
growth or no growth (65°C, 10 ppm, day 13): −
growth or no growth (65°C, 10 ppm, day 14): −
growth or no growth (70°C, 5 ppm, day 1): −
growth or no growth (70°C, 5 ppm, day 2): −
growth or no growth (70°C, 5 ppm, day 3): −
growth or no growth (70°C, 5 ppm, day 4): −
growth or no growth (70°C, 5 ppm, day 5): −
growth or no growth (70°C, 5 ppm, day 6): −
growth or no growth (70°C, 5 ppm, day 7): −
growth or no growth (70°C, 5 ppm, day 8): −
growth or no growth (70°C, 5 ppm, day 9): −
growth or no growth (70°C, 5 ppm, day 10): −
growth or no growth (70°C, 5 ppm, day 11): −
growth or no growth (70°C, 5 ppm, day 12): −
growth or no growth (70°C, 5 ppm, day 13): −
growth or no growth (70°C, 5 ppm, day 14): −
growth or no growth (70°C, 10 ppm, day 1): −
growth or no growth (70°C, 10 ppm, day 2): −
growth or no growth (70°C, 10 ppm, day 3): −
growth or no growth (70°C, 10 ppm, day 4): −
growth or no growth (70°C, 10 ppm, day 5): −
growth or no growth (70°C, 10 ppm, day 6): −
growth or no growth (70°C, 10 ppm, day 7): −
growth or no growth (70°C, 10 ppm, day 8): −
growth or no growth (70°C, 10 ppm, day 9): −
growth or no growth (70°C, 10 ppm, day 10): −
growth or no growth (70°C, 10 ppm, day 11): −
growth or no growth (70°C, 10 ppm, day 12): −
growth or no growth (70°C, 10 ppm, day 13): −
growth or no growth (70°C, 10 ppm, day 14): −
germination (75° C., 10 ppm natamycin): no germination occurred
growth or no growth (75°C, 5 ppm, day 9): +
growth or no growth (75°C, 5 ppm, day 10): +
germination (85° C., both concentrations (5 and 10 ppm)): no germination occurred
germination (RT, 5 or 10 ppm natamycin): delayed germination
growth or no growth (RT, 10 ppm, day 1): −
growth or no growth (RT, 10 ppm, day 2): −
growth or no growth (RT, 10 ppm, day 3): −
growth or no growth (RT, 10 ppm, day 4): −
growth or no growth (RT, 10 ppm, day 5): −
growth or no growth (RT, 10 ppm, day 6): −
growth or no growth (RT, 10 ppm, day 7): +
growth or no growth (RT, 10 ppm, day 8): +
growth or no growth (RT, 10 ppm, day 9): +
growth or no growth (RT, 10 ppm, day 10): +
growth or no growth (RT, 10 ppm, day 11): +
growth or no growth (RT, 10 ppm, day 12): +
growth or no growth (RT, 10 ppm, day 13): +
growth or no growth (RT, 10 ppm, day 14): +
